Experiment [1] has as its target T1, KRas G12C mutant (Homo sapiens, UniProt P01116, G12C).
T1 construct: made in house
Put plainly: Ras GTP binding domain inhibition assay (labeled-GTP competition, cell-free). The procedure, abridged:
(§1)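 Labeled-GTP competition read out as bound Cy3/Cy5-GTP fluorescence after washes, with 100 nM tracer for 45 min at RT. Before tracer, compounds at 20 μM, or a dilution series for IC50, sat 3 h at RT on the Ni-immobilized His-tagged GTPase. Sos GEF (10-30 μg/mL) was optionally present for the last hour.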

Experiment [2] addresses T2, KRas G12D mutant (Homo sapiens, UniProt P01116, G12D).
T2 construct: made in house
Described as above. In a few lines: as §1

Experiment [3] addresses T3, KRas Q61H mutant (Homo sapiens, UniProt P01116, Q61H).
T3 construct: made in house
Described as above. The procedure, abridged:
as §1

Experiment [4] concerns Akt phosphorylation in Panc-1 cells. The experiment in a line: Western AKT cell-based phosphorylation assay. Details: species or system human. The conditions noted are these: at 10 μM, values in brackets < > are activation %, not inhibition. In a few lines:
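Phospho-Akt (Ser473) western blot of Panc-1 lysates, with Ponceau S to confirm uniform loading. Before lysis, cells were serum-starved overnight (0.5% FBS), incubated 6 h at 37° C with 10 μM compound in 0.3% DMSO and stimulated 15 min with 1.5 ng/ml EGF.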

Experiment [5] has as its target KRas wild type (Homo sapiens, UniProt P01116). Put plainly: Ras GTP binding domain inhibition assay (labeled-GTP competition, cell-free). Details: made in house. The procedure, abridged:
as §1

Experiment [6] has as its target Rac-1 (Homo sapiens, UniProt P63000). The experiment is described as above. Further details: made in house. The procedure, abridged: as §1
Experiment [7] has as its target Rho-A (Homo sapiens, UniProt P61586). The experiment is described as above. Details: made in house. The procedure, abridged: as §1
The mark [8] stands for this setting: with SOS, read-out: KRas G12C mutant + SOS: % inh.
The mark [9] stands for this setting: without SOS, read-out: KRas G12C mutant: % inh.
Where [10] appears, read: with SOS, read-out: KRas G12D mutant + SOS: % inh.
Where [11] appears, read: without SOS, read-out: KRas G12D mutant: % inh.
Where [12] appears, read: with SOS, read-out: KRas Q61H mutant + SOS: % inh.
Where [13] appears, read: without SOS, read-out: KRas Q61H mutant: % inh.
Where [14] appears, read: with SOS, read-out: KRas wild type + SOS: % inh.
[15] abbreviates: without SOS, read-out: KRas wild type: % inh.
The mark [16] stands for this setting: without SOS, read-out: Rac-1: % inh.
[17] abbreviates: without SOS, read-out: Rho-A: % inh.
Where [18] appears, read: with SOS, read-out: Rac-1 + SOS: % inh.
The mark [19] stands for this setting: with SOS, read-out: Rho-A + SOS: % inh.

Where two headings read alike, the source gives them in different places. A value given as a limit tells only on which side of the number the result lay.

Consider 5 compounds from patent US20230227466A1, “SUBSTITUTED THIENOPYRIMIDINES THAT INTERACT WITH THE RAS SUPERFAMILY FOR THE TREATMENT OF CANCERS, INFLAMMATORY DISEASES, RASOPATHIES, AND FIBROTIC DISEASE” (SHY Therapeutics, LLC, priority 2020, published 2023).

A word on the IC50: it is the concentration at which inhibition is half-maximal.

Take `CC(C)OCCn1ccnc1-c1nc(O)c2scc(-c3ccccn3)c2n1` [Compound 82, 2-(1-(2-Isopropoxyethyl)-1H-imidazol-2-yl)-7-(pyridin-2-yl)thieno[3,2-d]pyrimidin-4-ol]: the inhibition at 20 µM in experiment [1] (setting [8]), in experiment [1] (setting [9]), in experiment [2] (setting [10]), in experiment [2] (setting [11]), in experiment [3] (setting [12]) and in experiment [3] (setting [13]) was 51 to 75% in each case. Besides, the inhibition at 20 µM in experiment [5] (setting [14]) was in the range of 51 to 75%; in experiment [5] (setting [15]), 51 to 75%; in experiment [6] (setting [16]) it was 76 to 100%; in experiment [7] (setting [17]) it was 51 to 75%. In experiment [4], the “% inh of AKT phosphorylation in PANC-1” value is on record as “<D>”.
In the case of `Oc1nc(-c2nccn2CCOCc2ccccc2)nc2c(-c3ccccn3)csc12` [Compound 83, 2-(1-(2-(Benzyloxy)ethyl)-1H-imidazol-2-yl)-7-(pyridin-2-yl)thieno[3,2-d]pyrimidin-4-ol], the inhibition at 20 µM in experiment [1] (setting [8]) lay in the range of 51 to 75%; in experiment [1] (setting [9]), 1 to 25%; in experiment [2] (setting [10]), 51 to 75%; in experiment [2] (setting [11]), 51 to 75%; in experiment [3] (setting [12]), 51 to 75%; in experiment [3] (setting [13]) it was 26 to 50%. For the same compound, the inhibition at 20 µM lay in the range of 26 to 50% in experiment [5] (setting [14]), 51 to 75% in experiment [5] (setting [15]), 76 to 100% in experiment [6] (setting [16]) and 51 to 75% in experiment [7] (setting [17]). Moreover, the “% inh of AKT phosphorylation in PANC-1” value in experiment [4] is listed as “<D>”.
Consider `COc1cccn2c(-c3nc(O)c4scc(-c5ccccn5)c4n3)ncc12` [Compound 84, 2-(8-Methoxyimidazo[1,5-a]pyridin-3-yl)-7-(pyridin-2-yl)thieno[3,2-d]pyrimidin-4-ol], for which the inhibition at 20 µM was in the range of 1 to 25% in experiment [1] (setting [8]); 26 to 50% in experiment [1] (setting [9]); 26 to 50% in experiment [2] (setting [10]); 26 to 50% in experiment [2] (setting [11]); 26 to 50% in experiment [3] (setting [12]); 26 to 50% in experiment [3] (setting [13]). Also, the inhibition at 20 µM in experiment [5] (setting [14]) lay in the range of 1 to 25%; in experiment [5] (setting [15]), 26 to 50%; in experiment [6] (setting [16]), 26 to 50%; in experiment [7] (setting [17]) it was 51 to 75%. Further, the “% inh of AKT phosphorylation in PANC-1” value in experiment [4] is listed as “A (1-25% inhibition)”.
For `CO[C@H]1C[C@@H](Nc2nc(-c3nccn3C)nc3sc(-c4ccn(C(C)C)n4)c(C)c23)C1` [Compound 96, 6-(1-isopropyl-1H-pyrazol-3-yl)-N-((1s,3s)-3-methoxycyclobutyl)-5-methyl-2-(1-methyl-1H-imidazol-2-yl)thieno[2,3-d]pyrimidin-4-amine], the inhibition at 20 µM in experiment [1] (setting [8]) is 0%; in experiment [1] (setting [9]), 0%; in experiment [2] (setting [10]) it was 1 to 25%; in experiment [2] (setting [11]) it was 0%; in experiment [3] (setting [12]), 0%; in experiment [3] (setting [13]), 0%. Further, the inhibition at 20 µM in experiment [5] (setting [14]) was 1 to 25%; in experiment [5] (setting [15]), 0%; in experiment [6] (setting [18]), 1 to 25%; in experiment [6] (setting [16]), 1 to 25%; in experiment [7] (setting [19]) it was 0%; in experiment [7] (setting [17]), 0%. Also, the IC50 in experiment [3] (with SOS) was more than 10 µM. Besides, the “% inh of AKT phosphorylation in PANC-1” value in experiment [4] was 0 (0% inhibition).
In the case of `CO[C@@H]1CC[C@H](Nc2nc(-c3nccn3C)nc3sc(-c4ccn(C(C)C)n4)c(-c4ccccc4)c23)C1` [Example 4, 6-(1-isopropyl-1H-pyrazol-3-yl)-N-((1S,3R)-3-methoxycyclopentyl)-2-(1-methyl-1H-imidazol-2-yl)-5-phenylthieno[2,3-d]pyrimidin-4-amine], the inhibition at 20 µM in experiment [1] (setting [8]) lay within 76 to 100%; in experiment [1] (setting [9]), 51 to 75%; in experiment [2] (setting [10]), 51 to 75%; in experiment [2] (setting [11]), 51 to 75%; in experiment [3] (setting [12]), 76 to 100%; in experiment [3] (setting [13]) it was 51 to 75%. Further, the inhibition at 20 µM in experiment [5] (setting [14]) is 76 to 100%; in experiment [5] (setting [15]), 51 to 75%; in experiment [6] (setting [18]), 26 to 50%; in experiment [6] (setting [16]), 1 to 25%; in experiment [7] (setting [19]), 26 to 50%; in experiment [7] (setting [17]) it was 26 to 50%. In addition, the 50% inhibitory concentration (IC50) in experiment [3] (with SOS) lay in the range of 1 to 4.99 µM. For the same compound, in experiment [4], the “% inh of AKT phosphorylation in PANC-1” value was “D (76-100% inhibition)”.
